The values that follow come from PubChem BioAssay (NCI).

Some test systems named below: HCT-15 colon; IGROV1 ovarian; MCF7 breast; MDA-N; NCI-H226 lung; SK-MEL-2 melanoma; SNB-75 CNS; T-47D breast; UACC-62 melanoma; UO-31 renal; 786-0 renal; SR leukemia.
What all share (assay): NCI-60 cell line screen, 48 h

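A five-concentration, 48-hour dose response in 96-well plates underlies each endpoint, interpolated linearly between surrounding concentrations. TGI: total growth inhibition.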

With `COc1ccc(C2CC(c3c(O)ccc4ccccc34)=NN2)cc1OC` (stereo not drawn), the TGI with HCT-15 colon was determined as 18.6 µM; with IGROV1 ovarian, 20.1 µM; with MCF7 breast, 34.5 µM; in the assay with MDA-N, 22.8 µM; in the assay with NCI-H226 lung, 14.6 µM; in the assay on SK-MEL-2 melanoma it was 30.9 µM. Further, the TGI in the assay on SNB-75 CNS amounted to 12.2 µM; with T-47D breast, 58.2 µM; in the assay with UACC-62 melanoma, 13.6 µM; with UO-31 renal it was 5.7 µM.

For `O=[N+]([O-])c1ccc(-c2csc(N=Nc3c(O)[nH]c4ccccc34)n2)cc1`, the TGI in the assay on 786-0 renal is greater than 100 µM; with HCT-15 colon it was 30.1 µM; in the assay on IGROV1 ovarian it was 57.9 µM; in the assay on MCF7 breast, greater than 100 µM; in the assay on MDA-N, greater than 100 µM; with NCI-H226 lung, greater than 100 µM. Moreover, the TGI with SK-MEL-2 melanoma is 84.2 µM; in the assay with SNB-75 CNS, greater than 100 µM; with T-47D breast, greater than 100 µM; with UO-31 renal, 39.2 µM.

Regarding `COC(=O)Nc1nc2ccc(NS(=O)(=O)c3cccs3)cc2[nH]1`, the TGI with 786-0 renal was greater than 100 µM; in the assay on HCT-15 colon, greater than 100 µM; with IGROV1 ovarian, 39.7 µM; with MCF7 breast it was 70.4 µM; in the assay on MDA-N it was 16.8 µM; in the assay with NCI-H226 lung, greater than 100 µM. Besides, the TGI is greater than 100 µM in the assay with SK-MEL-2 melanoma; 67.8 µM in the assay on SNB-75 CNS; 85.3 µM in the assay with T-47D breast; greater than 100 µM in the assay with UACC-62 melanoma; greater than 100 µM in the assay with UO-31 renal.

Regarding `O=C(O)c1nc2cc(Cl)ccc2[nH]c1=O`, the TGI in the assay with 786-0 renal, in the assay with HCT-15 colon, in the assay with IGROV1 ovarian, with MCF7 breast, with MDA-N and with NCI-H226 lung was greater than 100 µM in each case. Besides, the TGI in the assay with SK-MEL-2 melanoma, with SR leukemia, in the assay on T-47D breast, in the assay on UACC-62 melanoma and in the assay on UO-31 renal was greater than 100 µM each time.

Turning to `COc1cc(C2C=C(c3ccccc3)Oc3cc4c(cc32)OCO4)cc(OC)c1OC` (stereo not drawn), the TGI in the assay with 786-0 renal is greater than 19.6 µM; in the assay with HCT-15 colon, greater than 100 µM; with IGROV1 ovarian it was greater than 100 µM; with MCF7 breast, greater than 100 µM; in the assay with MDA-N, greater than 16.6 µM; in the assay on SK-MEL-2 melanoma, greater than 81.1 µM. Further, the TGI in the assay with SNB-75 CNS was greater than 90.8 µM; with SR leukemia, greater than 100 µM; in the assay with T-47D breast, greater than 100 µM; in the assay with UACC-62 melanoma, greater than 100 µM; with UO-31 renal, greater than 100 µM.

With `COC(=O)c1ccc(NCc2cc(OC)ccc2OC)cc1`, the TGI in the assay with 786-0 renal, in the assay on HCT-15 colon, with IGROV1 ovarian, with MCF7 breast, in the assay on MDA-N and with NCI-H226 lung was greater than 100 µM throughout. For the same compound, the TGI with SK-MEL-2 melanoma, in the assay on SNB-75 CNS, in the assay on SR leukemia, in the assay on UACC-62 melanoma and with UO-31 renal was greater than 100 µM throughout.

Take `CCOP(=O)(OCC)Oc1c(OC)c2[nH]c(C(=O)OC)cc2c2c(C(=O)O)c[nH]c12`: the TGI in the assay on 786-0 renal, with HCT-15 colon, in the assay with IGROV1 ovarian, in the assay on MCF7 breast, in the assay on MDA-N and in the assay on SK-MEL-2 melanoma was greater than 100 µM throughout. The TGI in the assay on SNB-75 CNS, in the assay with SR leukemia, in the assay on T-47D breast, with UACC-62 melanoma and in the assay with UO-31 renal was greater than 100 µM in each case.

In the case of `CCCCSC1=N/C(=C\c2ccccc2O)C(=O)N1`, the TGI with 786-0 renal, in the assay with HCT-15 colon, in the assay on IGROV1 ovarian, in the assay with MCF7 breast, in the assay on MDA-N and in the assay on NCI-H226 lung was greater than 100 µM each time. Besides, the TGI in the assay with SK-MEL-2 melanoma, in the assay with SNB-75 CNS, in the assay on T-47D breast, with UACC-62 melanoma and with UO-31 renal was greater than 100 µM throughout.

For the compound `CN(O)C(=O)CCC(NC(=O)CCC(N)C(=O)O)C(=O)NCC(=O)O` (stereo not drawn), the TGI in the assay on 786-0 renal, in the assay on HCT-15 colon, with IGROV1 ovarian, in the assay with MCF7 breast, with MDA-N and in the assay on NCI-H226 lung was greater than 100 µM each time. The TGI in the assay on SK-MEL-2 melanoma, in the assay with SNB-75 CNS, in the assay on T-47D breast, with UACC-62 melanoma and with UO-31 renal was greater than 100 µM each time.

Regarding `S=C(NCc1ccccc1)Nc1sc(=NCc2ccccc2)nc2sc3c(c12)CCN(N1CCc2c(sc4nc(=NCc5ccccc5)sc(NC(=S)NCc5ccccc5)c24)C1)C3`, the TGI in the assay on 786-0 renal was greater than 40.9 µM; in the assay with HCT-15 colon, greater than 66.7 µM; in the assay on IGROV1 ovarian it was greater than 100 µM; in the assay on MCF7 breast, greater than 62.2 µM; in the assay with MDA-N, greater than 58.2 µM; in the assay with NCI-H226 lung it was 99.7 µM. Also, the TGI is greater than 81.8 µM in the assay with SK-MEL-2 melanoma; greater than 64.9 µM with SNB-75 CNS; greater than 61.3 µM in the assay on T-47D breast; greater than 75.2 µM with UACC-62 melanoma; greater than 60.8 µM with UO-31 renal.

For `COc1ccc2[nH]cc(CCNC(=O)[C@H](Cc3ccc(O)cc3)NC(=O)[C@@H](NCC(F)(F)F)C(C)C)c2c1`, the TGI in the assay with 786-0 renal, in the assay on HCT-15 colon, in the assay with IGROV1 ovarian, with MCF7 breast, in the assay on MDA-N and with NCI-H226 lung was greater than 100 µM in each case. In addition, the TGI in the assay with SK-MEL-2 melanoma, with SR leukemia, with UACC-62 melanoma and in the assay with UO-31 renal was greater than 100 µM in each case.

On to `CCOC(=O)C(NC(=O)c1cccc(Cl)c1)(Nc1ccc(S(=O)(=O)Nc2cc(C)on2)cc1)C(F)(F)F` (stereo not drawn), for which the TGI with 786-0 renal, with HCT-15 colon, with IGROV1 ovarian, in the assay with MCF7 breast, in the assay with MDA-N and in the assay with NCI-H226 lung was greater than 100 µM throughout. The TGI in the assay on SK-MEL-2 melanoma, in the assay with SNB-75 CNS, in the assay on T-47D breast and in the assay on UO-31 renal was greater than 100 µM each time.

Take `COC(=O)c1cc2c(c(C(=O)OC)c1)CCC2`: the TGI in the assay on 786-0 renal, in the assay on HCT-15 colon, in the assay on IGROV1 ovarian, in the assay with MCF7 breast, with MDA-N and with SK-MEL-2 melanoma was greater than 100 µM throughout. For the same compound, the TGI in the assay with SNB-75 CNS is greater than 100 µM; in the assay on SR leukemia, 86.8 µM; in the assay with T-47D breast, greater than 100 µM; in the assay with UO-31 renal, greater than 100 µM.
